According to PubChem BioAssay AID248 (DTP/NCI, 2004):
Several values for one entry are separate records, joined by “and”; a condition that tells them apart may be missing. Equal values may be shown once. Inconclusive results and toxic doses are left out. Rule as the data show it: active = T/C of 150% or more; inactive = T/C below 125%.

System: L1210 leukemia ip in BDF1 mice, survival T/C
Experiment: NCI In Vivo Anticancer Drug Screen. Data for tumor model L1210 Leukemia (intraperitoneal) in B6D2F1 (BDF1) mice
Settings: higher = longer survival
In short: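 Tumor cells were implanted, animals were treated, and survival was followed. The result divides the treated measurement by the vehicle-control measurement.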

Measured: T/C

Nc1nc(=S)c2[nH]cnc2[nH]1
inactive: endpoint: mean survival time, dose: 6.0 mg/kg/injection, schedule: Q01DX Z (ip), vehicle: carboxymethylcellulose (CMC) 98 % of control | endpoint: mean survival time, dose: 7.0 mg/kg/injection, schedule: Q01DX001 (ip), vehicle: saline 104 % of control and 122 % of control | endpoint: mean survival time, dose: 8.0 mg/kg/injection, schedule: Q01DX Z (ip), vehicle: carboxymethylcellulose (CMC) 106 % of control | endpoint: mean survival time, dose: 8.3 mg/kg/injection, schedule: Q01DX Z (ip), vehicle: carboxymethylcellulose (CMC) 94 % of control | endpoint: mean survival time, dose: 9.0 mg/kg/injection, schedule: Q01DX Z (ip), vehicle: carboxymethylcellulose (CMC) 96 % of control | endpoint: mean survival time, dose: 10.0 mg/kg/injection, schedule: Q01DX010 (ip), vehicle: other 115 % of control | endpoint: mean survival time, dose: 16.0 mg/kg/injection, schedule: Q01DX Z (sc), vehicle: saline 106 % of control | endpoint: mean survival time, dose: 24.0 mg/kg/injection, schedule: Q03DX006 (ip), vehicle: saline 107 % of control | endpoint: mean survival time, dose: 24.0 mg/kg/injection, schedule: Q## X008 (ip), vehicle: alkali diluted with saline 116 % of control | endpoint: mean survival time, dose: 24.0 mg/kg/injection, schedule: Q## X024 (ip), vehicle: alkali diluted with saline 102 % of control | endpoint: mean survival time, dose: 36.0 mg/kg/injection, schedule: Q## X016 (ip), vehicle: alkali diluted with saline 105 % of control | endpoint: mean survival time, dose: 36.0 mg/kg/injection, schedule: Q## X024 (ip), vehicle: alkali diluted with saline 98 % of control | endpoint: mean survival time, dose: 50.0 mg/kg/injection, schedule: Q01DX001 (ip), vehicle: saline 118 % of control | endpoint: mean survival time, dose: 54.0 mg/kg/injection, schedule: Q## X008 (ip), vehicle: alkali diluted with saline 105 % of control | endpoint: mean survival time, dose: 54.0 mg/kg/injection, schedule: Q## X016 (ip), vehicle: alkali diluted with saline 97 % of control | endpoint: mean survival time, dose: 90.0 mg/kg/injection, schedule: Q07DX004 (ip), vehicle: alkali diluted with saline 120 % of control | endpoint: mean survival time, dose: 90.0 mg/kg/injection, schedule: Q07DX006 (ip), vehicle: alkali diluted with saline 118 % of control | endpoint: mean survival time, dose: 96.0 mg/kg/injection, schedule: Q07DX003 (ip), vehicle: saline 103 % of control | endpoint: mean survival time, dose: 100.0 mg/kg/injection, schedule: Q01DX001 (ip), vehicle: saline 112 % of control | endpoint: mean survival time, dose: 106.0 mg/kg/injection, schedule: Q04DX002 (ip), vehicle: alkali diluted with saline 98 % of control | endpoint: mean survival time, dose: 112.0 mg/kg/injection, schedule: Q01DX001 (ip), vehicle: saline 98 % of control | endpoint: mean survival time, dose: 150.0 mg/kg/injection, schedule: Q01DX001 (ip), vehicle: alkali diluted with saline 103 % of control | endpoint: mean survival time, dose: 448.0 mg/kg/injection, schedule: Q01DX001 (ip), vehicle: saline 119 % of control | endpoint: mean survival time, dose: 16.0 micrograms/kg/injection, schedule: Q01DX015 (ip), vehicle: alkali diluted with saline 100 % of control | endpoint: mean survival time, dose: 32.0 micrograms/kg/injection, schedule: Q01DX015 (ip), vehicle: alkali diluted with saline 107 % of control | endpoint: mean survival time, dose: 63.0 micrograms/kg/injection, schedule: Q01DX015 (ip), vehicle: alkali diluted with saline 107 % of control | endpoint: mean survival time, dose: 125.0 micrograms/kg/injection, schedule: Q01DX015 (ip), vehicle: alkali diluted with saline 116 % of control | endpoint: mean survival time, dose: 196.0 micrograms/kg/injection, schedule: Q01DX Z (ip), vehicle: carboxymethylcellulose (CMC) 122 % of control | endpoint: mean survival time, dose: 250.0 micrograms/kg/injection, schedule: Q01DX015 (ip), vehicle: alkali diluted with saline 103 % of control | endpoint: median survival time, dose: 16.0 mg/kg/injection, schedule: Q01DX009 (ip), vehicle: other 116 % of control
active: endpoint: mean survival time, dose: 8.0 mg/kg/injection, schedule: Q04DX008 (ip), vehicle: alkali diluted with saline 154 % of control | endpoint: mean survival time, dose: 8.0 mg/kg/injection, schedule: Q07DX008 (ip), vehicle: alkali diluted with saline 153 % of control | endpoint: mean survival time, dose: 12.0 mg/kg/injection, schedule: Q04DX004 (ip), vehicle: alkali diluted with saline 152 % of control | endpoint: mean survival time, dose: 12.0 mg/kg/injection, schedule: Q04DX006 (ip), vehicle: alkali diluted with saline 151 % of control | endpoint: mean survival time, dose: 13.0 mg/kg/injection, schedule: Q01DX001 (ip), vehicle: carboxymethylcellulose (CMC) 152 % of control | endpoint: mean survival time, dose: 20.0 mg/kg/injection, schedule: Q01DX001 (ip), vehicle: alkali diluted with saline 153 % of control | endpoint: mean survival time, dose: 20.0 mg/kg/injection, schedule: Q04DX003 (ip), vehicle: alkali diluted with saline 154 % of control | endpoint: mean survival time, dose: 24.0 mg/kg/injection, schedule: Q07DX003 (ip), vehicle: saline 152 % of control | endpoint: mean survival time, dose: 27.0 mg/kg/injection, schedule: Q07DX004 (ip), vehicle: alkali diluted with saline 153 % of control | endpoint: mean survival time, dose: 30.0 mg/kg/injection, schedule: Q04DX003 (ip), vehicle: alkali diluted with saline 150 % of control | endpoint: mean survival time, dose: 40.0 mg/kg/injection, schedule: Q07DX004 (ip), vehicle: alkali diluted with saline 152 % of control | endpoint: mean survival time, dose: 60.0 mg/kg/injection, schedule: Q07DX004 (ip), vehicle: alkali diluted with saline 152 % of control | endpoint: mean survival time, dose: 67.0 mg/kg/injection, schedule: Q01DX001 (ip), vehicle: alkali diluted with saline 152 % of control | endpoint: mean survival time, dose: 80.0 mg/kg/injection, schedule: Q01DX001 (ip), vehicle: alkali diluted with saline 150 % of control | endpoint: mean survival time, dose: 100.0 mg/kg/injection, schedule: Q01DX001 (ip), vehicle: alkali diluted with saline 150 % of control | endpoint: median survival time, dose: 4.0 mg/kg/injection, schedule: Q01DX009 (ip), vehicle: other 150 % of control
